Measured values from patent US10660967B2, “Curcumin conjugates and methods of use thereof” (priority 2016, dated 2020).
Like-named read-outs stand apart in the source and are kept apart here.

What was measured:
[1] = system: Staphylococcus aureus ATCC25923; assay: Antimicrobial MIC, agar dilution
[2] = system: HCT116 (colon) carcinoma cell line; assay: Anti-tumor properties, MTT; type: cell-based; settings: Homo sapiens, HCT-116; for IC50: read-out: IC50 (μM) HCT116 (colon)
In short: (§1)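 Cells seeded at 10×10^3 per well for 24 h, then exposed to compound in serum-free medium (final up to 100 μM, 0.5% DMSO vehicle) for 72 h in triplicate. Viability by MTT reduction (4 h, SDS solubilised), absorbance 595 nm/ref 620 nm; IC50 from survival curves.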

[3] = system: HepG2 (hepatocellular) carcinoma cell line; assay: Anti-tumor properties, MTT; type: cell-based; settings: Homo sapiens; for IC50: HepG2, read-out: IC50 (μM) HepG2 (liver)
In short: as §1

[4] = system: MCF7 (breast) carcinoma cell line; assay: Anti-tumor properties, MTT; type: cell-based; settings: Homo sapiens; for IC50: MCF7, read-out: IC50 (μM) MCF7 (breast)
In short: as §1

[5] = system: lipopolysaccharide-stimulated peritoneal macrophages; assay: Production of nitric oxide by lipopolysaccharide-stimulated peritoneal macrophages (Greiss reagent); type: cell-based; design: Potency (%): % inhibition of nitric oxide production relative to lipopolysaccharide-stimulated macrophages: concentration or dose not given beside the values; settings: LPS-stimulated peritoneal macrophages; for Nitric oxide (nitrite) concentration, μM (average ± SD): 24 h, nitrite by Greiss reagent
In short: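 NO output was quantified as accumulated nitrite, reacting supernatant with Greiss reagent (sulfanilamide/α-naphthylamine) and reading at 532 nm. Beforehand, cells had been incubated 24 h at 37° C. in nitrite-free, 0.1% BSA medium with 0.5–10 ng/ml LPS, with or without catecholamines at […].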

[6] = system: Streptococcus pyogenes ATCC19615; assay: Antimicrobial MIC, agar dilution
[7] = system: Candida albicans (local isolate); assay: Antimicrobial MIC, agar dilution; settings: Candida albicans, read-out: Minimum inhibitory concentration (MIC)
[8] = system: A-549 (lung) carcinoma cell line; assay: Anti-tumor properties, MTT; type: cell-based; settings: Homo sapiens, A549
[9] = system: PC3 (prostate) carcinoma cell line; assay: Anti-tumor properties, MTT; type: cell-based; settings: Homo sapiens
[10] = system: Salmonella typhi ATCC19430; assay: Antimicrobial MIC, agar dilution; type: cell-based; settings: Salmonella enterica, read-out: Minimum inhibitory concentration (MIC)
[11] = system: PHA-stimulated splenocytes; assay: Proliferative response of PHA-stimulated splenocytes (MTT assay); type: cell-based; settings: PHA 5 μg/ml, 72 hr; compounds at 5 μM (method says 10 μM); ratio of O.D. versus vehicle control
In short: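 Readout was MTT absorbance (570 nm, reference 690 nm) after 72 h culture at 37° C. Splenocytes at 1×10^6 cells/well received test compound (10 μM final) alone or plus PHA 5 μg/ml as T-cell mitogen. Values are OD ratios of compound over vehicle control (stimulation index).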

[12] = system: Pseudomonas aeruginosa ATCC27853; assay: Antimicrobial MIC, agar dilution
gastric mucosa = assay: Ulcerogenic liability (ulcer index); type: in vivo, albino mice; settings: orally, three successive days, 10 mg/kg indomethacin mol equivalent; for Number of animals with ulcer: 6 animals per group; for Ulcer index: sum of the three values
Method: The ulcerogenic liability was investigated in albino mice using the standard method. […] The animals were fasted 18 h before drug administration. […] The control group animals were given saline solution only with few drops of Tween 80. […] The gastric mucosa was examined with a magnifying lens (10×) for the presence of lesions and erosions.
1. percentage incidence of ulcer divided by 10;
2. average number of ulcers per stomach; and
3. average severity of ulcers;

MCF-7 cells = assay: Effect on doxorubicin induced cytotoxicity (MTT)
In short: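 MCF-7 cells were exposed for 48 hr to 100 μM curcumin derivative alone or combined with 10 μM doxorubicin. Controls got medium, DMSO vehicle, or vehicle+doxorubicin. Percent viable cells was read by MTT assay.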

[13] = ATCC25923, 18 h, read-out: Minimum inhibitory concentration (MIC)
[14] = ATCC25923, read-out: Minimum inhibitory concentration (MIC)
[15] = ATCC19615, 18 h, read-out: Minimum inhibitory concentration (MIC)
[16] = ATCC19615, read-out: Minimum inhibitory concentration (MIC)
[17] = ATCC27853, 18 h, read-out: Minimum inhibitory concentration (MIC)
[18] = ATCC27853, read-out: Minimum inhibitory concentration (MIC)

COc1cc(/C=C/C(=O)CC(=O)/C=C/c2ccc(OC(=O)C(C)NC(=O)OC(C)(C)C)c(OC)c2)ccc1OC(=O)C(C)NC(=O)OC(C)(C)C (racemic) [Boc-DL-Ala-Cur, ((1E,6E)-3,5-dioxohepta-1,6-diene-1,7-diyl)bis(2-methoxy-4,1-phenylene) bis(2-((tert-butoxycarbonyl)amino)propanoate)]
MIC [1, 13]: 0.25 µg/mL
MIC [1, 14]: 0.352 µM
IC50 [2]: > 100 µM
IC50 [3]: > 100 µM
IC50 [4]: 34.8 µM
Potency (%): % inhibition of nitric oxide production relative to lipopolysaccharide-stimulated macrophages [5]: 30.88%
Nitric oxide (nitrite) concentration, μM (average ± SD) [5]: 18.88 ± 0.46 µM
MIC [6, 15]: 0.125 µg/mL
MIC [6, 16]: 0.176 µM
MIC ([7]; 18 h): 0.5 µg/mL
MIC [7]: 0.703 µM
IC50 [8]: 73.9 µM
IC50 [9]: > 100 µM
MIC ([10]; 18 h): 0.25 µg/mL
MIC [10]: 0.352 µM
Stimulation Index (average ± SD) [11]: 1.78 ± 0.07
MIC [12, 17]: 0.25 µg/mL
MIC [12, 18]: 0.352 µM

COc1cc(/C=C/C(=O)CC(=O)/C=C/c2ccc(OC(=O)C(C)N)c(OC)c2)ccc1OC(=O)C(C)N.Cl.Cl (racemic) [HCl-DL-Ala-Cur, 1,1′-((((1E,6E)-3,5-dioxohepta-1,6-diene-1,7-diyl)bis(2-methoxy-4,1-phenylene))bis(oxy))bis(1-oxopropan-2-aminium) chloride]
MIC [1, 13]: 0.125 µg/mL
MIC [1, 14]: 0.214 µM
IC50 [2]: 66.9 µM
IC50 [3]: 36.8 µM
IC50 [4]: 9.79 µM
Potency (%): % inhibition of nitric oxide production relative to lipopolysaccharide-stimulated macrophages [5]: 27.69%
Nitric oxide (nitrite) concentration, μM (average ± SD) [5]: 19.75 ± 0.97 µM
MIC [6, 15]: 0.25 µg/mL
MIC [6, 16]: 0.428 µM
MIC ([7]; 18 h): 1 µg/mL
MIC [7]: 1.71 µM
IC50 [8]: 22.2 µM
IC50 [9]: 21.7 µM
MIC ([10]; 18 h): 0.25 µg/mL
MIC [10]: 0.428 µM
Stimulation Index (average ± SD) [11]: 1.91 ± 0.15
MIC [12, 17]: 0.5 µg/mL
MIC [12, 18]: 0.857 µM

COc1cc(/C=C/C(=O)CC(=O)/C=C/c2ccc(OC(=O)[C@@H](C)NC(=O)OC(C)(C)C)c(OC)c2)ccc1OC(=O)[C@@H](C)NC(=O)OC(C)(C)C [Boc-D-Ala-Cur, ((1E,6E)-3,5-dioxohepta-1,6-diene-1,7-diyl)bis(2-methoxy-4,1-phenylene) (2R,2′R)-bis(2-((tert-butoxycarbonyl)amino)propanoate)]
MIC [1, 13]: 0.125 µg/mL
MIC [1, 14]: 0.176 µM
IC50 [2]: > 100 µM
IC50 [3]: > 100 µM
IC50 [4]: 29.2 µM
Potency (%): % inhibition of nitric oxide production relative to lipopolysaccharide-stimulated macrophages [5]: 23.82%
Nitric oxide (nitrite) concentration, μM (average ± SD) [5]: 20.81 ± 0.82 µM
MIC [6, 15]: 1 µg/mL
MIC [6, 16]: 1.41 µM
MIC ([7]; 18 h): 0.5 µg/mL
MIC [7]: 0.703 µM
IC50 [8]: 85.4 µM
IC50 [9]: > 100 µM
MIC ([10]; 18 h): 0.25 µg/mL
MIC [10]: 0.352 µM
Stimulation Index (average ± SD) [11]: 2.07 ± 0.12
MIC [12, 17]: 0.25 µg/mL
MIC [12, 18]: 0.352 µM

COc1cc(/C=C/C(=O)CC(=O)/C=C/c2ccc(OC(=O)[C@@H](CCSC)NC(=O)OC(C)(C)C)c(OC)c2)ccc1OC(=O)[C@@H](CCSC)NC(=O)OC(C)(C)C [Boc-D-Met-Cur, ((1E,6E)-3,5-dioxohepta-1,6-diene-1,7-diyl)bis(2-methoxy-4,1-phenylene) (2R,2′R)-bis(2-((tert-butoxycarbonyl)amino)-4-(methylthio)butanoate)]
MIC [1, 13]: 0.25 µg/mL
MIC [1, 14]: 0.301 µM
IC50 [2]: > 100 µM
IC50 [3]: > 100 µM
IC50 [4]: 22.3 µM
% Incidence of ulcer divided by 10 (gastric mucosa): 0
Average of ulcer number (gastric mucosa): 0
Average severity of ulcer (gastric mucosa): 0
Number of animals with ulcer (gastric mucosa): 0/6
Ulcer index (gastric mucosa): 0
MIC [6, 15]: 0.125 µg/mL
MIC [6, 16]: 0.15 µM
MIC ([7]; 18 h): 0.5 µg/mL
MIC [7]: 0.602 µM
IC50 [8]: > 100 µM
IC50 [9]: > 100 µM
MIC ([10]; 18 h): 1 µg/mL
MIC [10]: 1.2 µM
Stimulation Index (average ± SD) [11]: 2.53 ± 0.08
MIC [12, 17]: 0.25 µg/mL
MIC [12, 18]: 0.301 µM

COc1cc(/C=C/C(=O)CC(=O)/C=C/c2ccc(OC(=O)[C@H](Cc3ccccc3)NC(=O)OC(C)(C)C)c(OC)c2)ccc1OC(=O)[C@H](Cc1ccccc1)NC(=O)OC(C)(C)C [Boc-L-Phe-Cur, ((1E,6E)-3,5-dioxohepta-1,6-diene-1,7-diyl)bis(2-methoxy-4,1-phenylene) (2S,2′S)-bis(2-((tert-butoxycarbonyl)amino)-3-phenylpropanoate)]
MIC [1, 13]: 0.25 µg/mL
MIC [1, 14]: 0.29 µM
IC50 [2]: > 100 µM
IC50 [3]: > 100 µM
IC50 [4]: > 100 µM
MIC [6, 15]: 0.125 µg/mL
MIC [6, 16]: 0.145 µM
MIC ([7]; 18 h): 1 µg/mL
MIC [7]: 1.16 µM
IC50 [8]: > 100 µM
IC50 [9]: > 100 µM
MIC ([10]; 18 h): 0.25 µg/mL
MIC [10]: 0.29 µM
Stimulation Index (average ± SD) [11]: 2.56 ± 0.14
MIC [12, 17]: 1 µg/mL
MIC [12, 18]: 1.16 µM

COc1cc(/C=C/C(=O)CC(=O)/C=C/c2ccc(OC(=O)[C@H](CCSC)NC(=O)OCC3c4ccccc4-c4ccccc43)c(OC)c2)ccc1OC(=O)[C@H](CCSC)NC(=O)OCC1c2ccccc2-c2ccccc21 [Fmoc-Met-Cur, ((1E,6E)-3,5-dioxohepta-1,6-diene-1,7-diyl)bis(2-methoxy-4,1-phenylene) (2S,2′S)-bis(2-((((9H-fluoren-9-yl)methoxy)carbonyl)amino)-4-(methylthio)butanoate)]
MIC [1, 13]: 0.25 µg/mL
MIC [1, 14]: 0.233 µM
activity at 100 µM ([2]; HCT116, 100 μM, 72 h, read-out: Percentage growth of tumor cell lines treated with the tested compounds (±SD)): 96.4 ± 1.4%
activity at 100 µM ([3]; HepG2, 100 μM, 72 h, read-out: Percentage growth of tumor cell lines treated with the tested compounds (±SD)): 92.4 ± 5.1%
activity at 100 µM ([4]; MCF7, 100 μM, 72 h, read-out: Percentage growth of tumor cell lines treated with the tested compounds (±SD)): 88.9 ± 5%
Potency (%): % inhibition of nitric oxide production relative to lipopolysaccharide-stimulated macrophages [5]: 47.91%
Nitric oxide (nitrite) concentration, μM (average ± SD) [5]: 14.23 ± 1.05 µM
% Incidence of ulcer divided by 10 (gastric mucosa): 0
Average of ulcer number (gastric mucosa): 0
Average severity of ulcer (gastric mucosa): 0
Number of animals with ulcer (gastric mucosa): 0/6
Ulcer index (gastric mucosa): 0
MIC [6, 15]: 0.125 µg/mL
MIC [6, 16]: 0.116 µM
MIC ([7]; 18 h): 0.5 µg/mL
MIC [7]: 0.465 µM
MIC ([10]; 18 h): 2 µg/mL
MIC [10]: 1.86 µM
Stimulation Index (average ± SD) [11]: 1.07 ± 0.16
Percentage of viable cells MCF-7 (average ± SD) (MCF-7 cells; 10 μM DOX in combination with 100 μM curcumin derivative, 48 hr): 38.75 ± 1.65
viability at 100 µM (MCF-7 cells; Homo sapiens, MCF7, 48 h, read-out: Percentage of viable cells MCF-7 (average ± SD)): 99.3 ± 3.16%
MIC [12, 17]: 2 µg/mL
MIC [12, 18]: 1.86 µM

COc1cc(/C=C/C(=O)CC(=O)/C=C/c2ccc(OC(=O)[C@H](CCC(N)=O)NC(=O)OCc3ccccc3)c(OC)c2)ccc1OC(=O)[C@H](CCC(N)=O)NC(=O)OCc1ccccc1 [Z-L-Gln-Cur, ((1E,6E)-3,5-dioxohepta-1,6-diene-1,7-diyl)bis(2-methoxy-4,1-phenylene) (2S,2′S)-bis(5-amino-2-(((benzyloxy)carbonyl)amino)-5-oxopentanoate)]
MIC [1, 13]: 0.5 µg/mL
MIC [1, 14]: 0.56 µM
IC50 [2]: > 100 µM
IC50 [3]: > 100 µM
IC50 [4]: 10.2 µM
MIC [6, 15]: 0.125 µg/mL
MIC [6, 16]: 0.14 µM
MIC ([7]; 18 h): 0.5 µg/mL
MIC [7]: 0.56 µM
IC50 [8]: 46.1 µM
IC50 [9]: 90.7 µM
MIC ([10]; 18 h): 0.5 µg/mL
MIC [10]: 0.56 µM
Stimulation Index (average ± SD) [11]: 2.37 ± 0.16
MIC [12, 17]: 1 µg/mL
MIC [12, 18]: 1.12 µM
